± gives the expanded uncertainty stated by the source. Values belong to the molecule of their own block, whether it stands above or below them.
What was measured:
[1] = 308.15 K; 101.3 kPa; Liquid
[2] = refractive index (Na D-line) (dimensionless); settings: 101.33 kPa, Liquid, Standard Abbe refractometry
[3] = xn = mol fraction of the nth substance listed; settings: 308.15 K, 101.3 kPa, Liquid
[4] = activity coefficient (dimensionless); of the first substance listed, at infinite dilution; xn = mol fraction of the nth substance listed; settings: 101.3 kPa, Liquid, Differential ebulliometry, x1 = 0

Structure (SMILES): Cc1ccccc1O [2-methylphenol]
mass density [1]: 1032.73 ± 0.49 kg/m3 | refractive index ([2]; 308.15 K): 1.5386 ± 0.0007

Structure (SMILES): Cc1ccccc1O [2-methylphenol] + CCCCCCCCC
mass density ([3]; x1 = 0.0661): 719.58 ± 0.37 kg/m3 | mass density ([3]; x1 = 0.0684): 720.02 ± 0.37 kg/m3 | mass density ([3]; x1 = 0.1489): 736.5 ± 0.36 kg/m3 | mass density ([3]; x1 = 0.2085): 749.6 ± 0.35 kg/m3 | mass density ([3]; x1 = 0.2703): 764.08 ± 0.35 kg/m3 | mass density ([3]; x1 = 0.3994): 797.32 ± 0.35 kg/m3 | mass density ([3]; x1 = 0.4008): 797.69 ± 0.35 kg/m3 | mass density ([3]; x1 = 0.4688): 817.04 ± 0.36 kg/m3 | mass density ([3]; x1 = 0.5237): 833.66 ± 0.37 kg/m3 | mass density ([3]; x1 = 0.5941): 856.51 ± 0.36 kg/m3 | mass density ([3]; x1 = 0.6631): 880.76 ± 0.37 kg/m3 | mass density ([3]; x1 = 0.7323): 906.98 ± 0.38 kg/m3 | mass density ([3]; x1 = 0.8106): 939.53 ± 0.39 kg/m3 | mass density ([3]; x1 = 0.8674): 965.12 ± 0.41 kg/m3 | mass density ([3]; x1 = 0.9285): 994.76 ± 0.44 kg/m3 | mass density ([3]; x1 = 1): 1032.73 ± 0.49 kg/m3 | activity coefficient ([4]; 373.15 K): 5.84 ± 0.82 | activity coefficient ([4]; 393.15 K): 4.58 ± 0.64 | activity coefficient ([4]; 413.15 K): 3.8 ± 0.5

Structure (SMILES): Cc1ccccc1O [2-methylphenol] + CCCCCCCCCC
mass density ([3]; x1 = 0.0637): 730.49 ± 0.42 kg/m3 | mass density ([3]; x1 = 0.0908): 735.2 ± 0.42 kg/m3 | mass density ([3]; x1 = 0.162): 748.33 ± 0.42 kg/m3 | mass density ([3]; x1 = 0.2086): 757.57 ± 0.42 kg/m3 | mass density ([3]; x1 = 0.272): 770.9 ± 0.41 kg/m3 | mass density ([3]; x1 = 0.3186): 781.32 ± 0.42 kg/m3 | mass density ([3]; x1 = 0.4014): 801.21 ± 0.42 kg/m3 | mass density ([3]; x1 = 0.4707): 819.47 ± 0.43 kg/m3 | mass density ([3]; x1 = 0.529): 836.06 ± 0.43 kg/m3 | mass density ([3]; x1 = 0.6014): 858.4 ± 0.43 kg/m3 | mass density ([3]; x1 = 0.6596): 878.02 ± 0.43 kg/m3 | mass density ([3]; x1 = 0.7379): 906.95 ± 0.43 kg/m3 | mass density ([3]; x1 = 0.7876): 927.04 ± 0.43 kg/m3 | mass density ([3]; x1 = 0.8714): 964.58 ± 0.44 kg/m3 | mass density ([3]; x1 = 0.9348): 996.28 ± 0.45 kg/m3 | mass density ([3]; x1 = 0.9617): 1010.78 ± 0.47 kg/m3 | mass density ([3]; x1 = 1): 1032.73 ± 0.49 kg/m3 | activity coefficient ([4]; 393.15 K): 4.15 ± 0.58 | activity coefficient ([4]; 413.15 K): 3.49 ± 0.49 | activity coefficient ([4]; 433.15 K): 3.04 ± 0.43

Structure (SMILES): Cc1ccccc1O [2-methylphenol] + CCCCCCCCCCC
mass density ([3]; x1 = 1): 1032.73 ± 0.49 kg/m3 | activity coefficient ([4]; 393.15 K): 4.47 ± 0.63 | activity coefficient ([4]; 413.15 K): 3.77 ± 0.53 | activity coefficient ([4]; 433.15 K): 2.85 ± 0.4

mass density [1]: 1022.02 ± 0.13 kg/m3 | refractive index ([2]; 293.15 K): 1.5401 ± 0.0007
Structure (SMILES): Cc1cccc(O)c1 [3-methylphenol]

mass density ([3]; x1 = 0.1021): 726.54 ± 0.36 kg/m3 | mass density ([3]; x1 = 0.1998): 747.24 ± 0.34 kg/m3 | mass density ([3]; x1 = 0.302): 770.94 ± 0.33 kg/m3 | mass density ([3]; x1 = 0.4021): 796.76 ± 0.31 kg/m3 | mass density ([3]; x1 = 0.5): 825 ± 0.31 kg/m3 | mass density ([3]; x1 = 0.7): 892.22 ± 0.23 kg/m3 | mass density ([3]; x1 = 0.9): 974.43 ± 0.14 kg/m3 | mass density ([3]; x1 = 1): 1022.02 ± 0.13 kg/m3 | activity coefficient ([4]; 373.15 K): 9.21 ± 1.3 | activity coefficient ([4]; 393.15 K): 7.06 ± 0.99 | activity coefficient ([4]; 413.15 K): 5.96 ± 0.83
Structure (SMILES): Cc1cccc(O)c1 [3-methylphenol] + CCCCCCCCC

activity coefficient ([4]; 373.15 K): 7.79 ± 1.1 | activity coefficient ([4]; 403.15 K): 5.37 ± 0.75 | activity coefficient ([4]; 433.15 K): 4.26 ± 0.6
Structure (SMILES): Cc1cccc(O)c1 [3-methylphenol] + CCCCCCCCCC

mass density ([3]; x1 = 0.1287): 748.52 ± 0.34 kg/m3 | mass density ([3]; x1 = 0.1853): 758.11 ± 0.33 kg/m3 | mass density ([3]; x1 = 0.3395): 787.84 ± 0.31 kg/m3 | mass density ([3]; x1 = 0.389): 798.63 ± 0.3 kg/m3 | mass density ([3]; x1 = 0.5024): 826.11 ± 0.29 kg/m3 | mass density ([3]; x1 = 0.6023): 854.21 ± 0.26 kg/m3 | mass density ([3]; x1 = 0.6949): 884.19 ± 0.23 kg/m3 | mass density ([3]; x1 = 0.8): 923.73 ± 0.19 kg/m3 | mass density ([3]; x1 = 0.9): 968.61 ± 0.14 kg/m3 | mass density ([3]; x1 = 1): 1022.02 ± 0.13 kg/m3 | activity coefficient ([4]; 393.15 K): 6.25 ± 0.88 | activity coefficient ([4]; 413.15 K): 4.9 ± 0.69 | activity coefficient ([4]; 433.15 K): 3.93 ± 0.55
Structure (SMILES): Cc1cccc(O)c1 [3-methylphenol] + CCCCCCCCCCC

mass density ([3]; x1 = 0.1325): 756.67 ± 0.34 kg/m3 | mass density ([3]; x1 = 0.2055): 767.97 ± 0.33 kg/m3 | mass density ([3]; x1 = 0.3009): 784.51 ± 0.32 kg/m3 | mass density ([3]; x1 = 0.4009): 804.35 ± 0.31 kg/m3 | mass density ([3]; x1 = 0.6976): 883.71 ± 0.23 kg/m3 | mass density ([3]; x1 = 0.7987): 921.29 ± 0.2 kg/m3 | mass density ([3]; x1 = 0.895): 963.9 ± 0.15 kg/m3 | mass density ([3]; x1 = 1): 1022.02 ± 0.13 kg/m3
Structure (SMILES): Cc1cccc(O)c1 [3-methylphenol] + CCCCCCCCCCCC

Structure (SMILES): CCCCCCCCCC [decane]
mass density [1]: 720.24 ± 0.42 kg/m3 | refractive index ([2]; 308.15 K): 1.4055 ± 0.0007

Structure (SMILES): CCCCCCCCCC [decane] + Cc1ccccc1O
mass density ([3]; x2 = 0): 720.24 ± 0.42 kg/m3

mass density [1]: 738.63 ± 0.36 kg/m3 | refractive index ([2]; 293.15 K): 1.421 ± 0.0007
Structure (SMILES): CCCCCCCCCCCC [dodecane]

mass density ([3]; x2 = 0): 738.63 ± 0.36 kg/m3
Structure (SMILES): CCCCCCCCCCCC [dodecane] + Cc1cccc(O)c1

Structure (SMILES): CCCCCCCCC [nonane]
mass density [1]: 707.41 ± 0.38 kg/m3 | refractive index ([2]; 293.15 K): 1.4058 ± 0.0007

Structure (SMILES): CCCCCCCCC [nonane] + Cc1cccc(O)c1
mass density ([3]; x2 = 0): 707.41 ± 0.38 kg/m3

Structure (SMILES): CCCCCCCCC [nonane] + Cc1ccccc1O
mass density ([3]; x2 = 0): 707.41 ± 0.38 kg/m3

Structure (SMILES): CCCCCCCCCCC [undecane]
mass density [1]: 729.13 ± 0.36 kg/m3 | refractive index ([2]; 293.15 K): 1.4164 ± 0.0007

Structure (SMILES): CCCCCCCCCCC [undecane] + Cc1cccc(O)c1
mass density ([3]; x2 = 0): 729.13 ± 0.36 kg/m3

Structure (SMILES): CCCCCCCCCCC [undecane] + Cc1ccccc1O
mass density ([3]; x2 = 0): 729.13 ± 0.36 kg/m3 | mass density ([3]; x2 = 0.0367): 734.21 ± 0.35 kg/m3 | mass density ([3]; x2 = 0.0684): 738.92 ± 0.35 kg/m3 | mass density ([3]; x2 = 0.0746): 739.92 ± 0.35 kg/m3 | mass density ([3]; x2 = 0.1306): 748.8 ± 0.35 kg/m3 | mass density ([3]; x2 = 0.2094): 762.7 ± 0.34 kg/m3 | mass density ([3]; x2 = 0.2809): 776.41 ± 0.34 kg/m3 | mass density ([3]; x2 = 0.3636): 794.01 ± 0.34 kg/m3 | mass density ([3]; x2 = 0.4749): 820.79 ± 0.35 kg/m3 | mass density ([3]; x2 = 0.5311): 835.93 ± 0.36 kg/m3 | mass density ([3]; x2 = 0.5989): 855.95 ± 0.36 kg/m3 | mass density ([3]; x2 = 0.6593): 875.61 ± 0.37 kg/m3 | mass density ([3]; x2 = 0.7261): 899.41 ± 0.38 kg/m3 | mass density ([3]; x2 = 0.8065): 931.92 ± 0.39 kg/m3 | mass density ([3]; x2 = 0.8662): 959.18 ± 0.41 kg/m3 | mass density ([3]; x2 = 0.9476): 1001.43 ± 0.45 kg/m3
